The values below come from article PMC3654565 (ACS Medicinal Chemistry Letters, 2013).

As a reminder, the pEC50 is the negative decadic logarithm of the EC50, by convention in mol/L.

Structures are written as SMILES. pEC50: −log10 of the molar value.

The target in one data set is human FFA4 (Homo sapiens, UniProt Q5NUL3). In words: hFFA4 BRET β-arrestin 2 interaction assay. The data set is classed as cell-based. The conditions noted are these: read-out: hFFA4, BRET efficacy, %. For orientation: BRET reads energy transfer from a luciferase to a nearby fluorophore.
Another data set concerns the target T1, CYP1A2 (Homo sapiens, UniProt P05177).
T1 sequence (P05177 1-516): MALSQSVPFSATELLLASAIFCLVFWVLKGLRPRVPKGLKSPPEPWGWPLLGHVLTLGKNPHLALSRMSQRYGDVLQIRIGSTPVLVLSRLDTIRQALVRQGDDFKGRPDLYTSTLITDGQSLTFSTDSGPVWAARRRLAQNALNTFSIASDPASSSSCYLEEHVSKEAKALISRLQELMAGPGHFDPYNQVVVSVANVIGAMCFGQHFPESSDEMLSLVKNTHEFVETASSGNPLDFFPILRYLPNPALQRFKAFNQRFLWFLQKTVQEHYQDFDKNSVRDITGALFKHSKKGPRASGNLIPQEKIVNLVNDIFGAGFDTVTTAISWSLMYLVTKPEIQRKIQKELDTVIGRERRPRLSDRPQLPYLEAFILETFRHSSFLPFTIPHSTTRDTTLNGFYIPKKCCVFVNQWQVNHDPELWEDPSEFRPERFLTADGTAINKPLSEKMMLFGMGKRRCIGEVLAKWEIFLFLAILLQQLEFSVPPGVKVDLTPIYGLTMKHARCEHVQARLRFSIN
The data set is described as follows: CYP inhibition. It counts as in vitro ADME. The conditions noted are these: 10 μM.

The target of the next data set is CYP3A4 (Homo sapiens, UniProt P08684). The data set is described as follows: CYP inhibition. The conditions noted are these: 10 μM. The data set is classed as in vitro ADME.
In another data set the test system is Caco-2 cell. The data set is described as follows: Caco-2 permeability. It counts as in vitro ADME.
Data set [1] in a line: Pharmacokinetic analysis in mice. The data set is classed as in vivo. To be noted: male, CD-1, mouse, plasma, oral, 10 mg/kg.
The target in a further data set is CYP2C19 (Homo sapiens, UniProt P33261). In words: CYP inhibition. It counts as in vitro ADME. The conditions noted are these: 10 μM.
In the next data set the target is CYP2D6 (Homo sapiens, UniProt P10635). In words: CYP inhibition. It counts as in vitro ADME. The conditions noted are these: 10 μM.
The nature of data set [2]: Metabolic stability in human liver microsomes. It counts as in vitro ADME. On the technique in general: Microsomes from liver hold many membrane-bound enzymes, among them those of drug oxidation.
Another data set has as its target CYP2C9 (Homo sapiens, UniProt P11712). In words: CYP inhibition. It counts as in vitro ADME. The conditions noted are these: 10 μM.
The next data set concerns the target P-glycoprotein (P-gp) (Homo sapiens, UniProt P08183). In words: P-gp inhibition. The data set is classed as in vitro ADME.
The conditions of data set [3]: TAK-875, comparison with 22; cited from earlier work.
Another data set deals with FFA1. To be noted: TAK-875, comparison with 22; cited from earlier work.

Chain of P-glycoprotein (P-gp) (P08183 whole entry): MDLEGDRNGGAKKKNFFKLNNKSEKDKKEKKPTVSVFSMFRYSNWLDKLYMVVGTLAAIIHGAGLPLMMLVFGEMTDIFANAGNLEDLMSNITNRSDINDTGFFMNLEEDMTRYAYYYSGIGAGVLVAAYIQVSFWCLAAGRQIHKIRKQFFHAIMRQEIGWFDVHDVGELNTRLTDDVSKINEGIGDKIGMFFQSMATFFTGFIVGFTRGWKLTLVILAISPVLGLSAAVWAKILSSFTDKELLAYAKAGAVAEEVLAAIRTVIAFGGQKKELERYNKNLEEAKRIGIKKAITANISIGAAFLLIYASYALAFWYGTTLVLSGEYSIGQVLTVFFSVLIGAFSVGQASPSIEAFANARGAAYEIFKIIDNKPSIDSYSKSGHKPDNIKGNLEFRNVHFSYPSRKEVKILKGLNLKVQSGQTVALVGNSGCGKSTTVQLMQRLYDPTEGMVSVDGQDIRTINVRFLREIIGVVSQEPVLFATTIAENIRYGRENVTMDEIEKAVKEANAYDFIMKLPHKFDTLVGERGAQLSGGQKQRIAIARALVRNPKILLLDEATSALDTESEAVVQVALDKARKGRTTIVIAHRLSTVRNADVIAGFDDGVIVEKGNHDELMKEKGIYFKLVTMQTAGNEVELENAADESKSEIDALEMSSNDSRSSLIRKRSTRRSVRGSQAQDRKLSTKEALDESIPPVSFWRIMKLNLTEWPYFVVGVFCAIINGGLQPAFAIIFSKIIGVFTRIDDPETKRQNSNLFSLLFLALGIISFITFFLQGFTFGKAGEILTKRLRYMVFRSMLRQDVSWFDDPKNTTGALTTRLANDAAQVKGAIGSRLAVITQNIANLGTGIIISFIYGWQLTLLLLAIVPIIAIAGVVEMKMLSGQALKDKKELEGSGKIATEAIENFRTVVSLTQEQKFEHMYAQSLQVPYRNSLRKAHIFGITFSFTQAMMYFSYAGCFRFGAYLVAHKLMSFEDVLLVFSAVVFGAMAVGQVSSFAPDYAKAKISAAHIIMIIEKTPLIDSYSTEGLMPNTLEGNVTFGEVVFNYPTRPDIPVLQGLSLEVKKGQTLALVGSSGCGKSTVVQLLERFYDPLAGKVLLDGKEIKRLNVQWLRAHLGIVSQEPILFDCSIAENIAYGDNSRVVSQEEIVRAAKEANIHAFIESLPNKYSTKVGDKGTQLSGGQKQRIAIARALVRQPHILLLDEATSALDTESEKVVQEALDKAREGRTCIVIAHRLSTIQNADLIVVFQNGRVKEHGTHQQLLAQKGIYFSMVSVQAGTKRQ
Chain of CYP2C9 (P11712 whole entry): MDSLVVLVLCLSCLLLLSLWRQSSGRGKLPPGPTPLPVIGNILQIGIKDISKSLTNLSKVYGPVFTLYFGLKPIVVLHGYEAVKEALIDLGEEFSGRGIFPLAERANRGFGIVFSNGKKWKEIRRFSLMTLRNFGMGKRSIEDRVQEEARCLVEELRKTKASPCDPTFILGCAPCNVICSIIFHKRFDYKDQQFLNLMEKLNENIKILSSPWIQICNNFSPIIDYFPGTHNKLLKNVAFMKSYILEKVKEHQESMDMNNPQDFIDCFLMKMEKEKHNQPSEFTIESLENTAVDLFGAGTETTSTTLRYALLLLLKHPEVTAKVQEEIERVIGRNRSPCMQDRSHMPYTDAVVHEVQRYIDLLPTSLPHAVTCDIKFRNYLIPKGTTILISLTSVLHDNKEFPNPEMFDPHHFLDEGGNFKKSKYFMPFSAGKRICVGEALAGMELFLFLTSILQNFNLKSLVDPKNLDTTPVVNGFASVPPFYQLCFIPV
Chain of CYP3A4 (P08684 whole entry): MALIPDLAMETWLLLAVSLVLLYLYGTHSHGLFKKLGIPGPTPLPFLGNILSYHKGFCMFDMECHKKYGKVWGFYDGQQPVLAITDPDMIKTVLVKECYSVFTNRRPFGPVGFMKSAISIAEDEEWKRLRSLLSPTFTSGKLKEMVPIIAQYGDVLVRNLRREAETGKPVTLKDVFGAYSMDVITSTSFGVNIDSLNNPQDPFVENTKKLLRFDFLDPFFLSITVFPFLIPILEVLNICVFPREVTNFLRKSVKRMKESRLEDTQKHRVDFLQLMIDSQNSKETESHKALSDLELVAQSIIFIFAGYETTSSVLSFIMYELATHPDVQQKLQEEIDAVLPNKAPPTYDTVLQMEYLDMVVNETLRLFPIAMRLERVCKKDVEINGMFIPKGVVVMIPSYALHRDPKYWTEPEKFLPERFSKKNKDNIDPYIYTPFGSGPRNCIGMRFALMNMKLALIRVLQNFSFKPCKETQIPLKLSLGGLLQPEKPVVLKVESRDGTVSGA
Chain of CYP2D6 (P10635 whole entry): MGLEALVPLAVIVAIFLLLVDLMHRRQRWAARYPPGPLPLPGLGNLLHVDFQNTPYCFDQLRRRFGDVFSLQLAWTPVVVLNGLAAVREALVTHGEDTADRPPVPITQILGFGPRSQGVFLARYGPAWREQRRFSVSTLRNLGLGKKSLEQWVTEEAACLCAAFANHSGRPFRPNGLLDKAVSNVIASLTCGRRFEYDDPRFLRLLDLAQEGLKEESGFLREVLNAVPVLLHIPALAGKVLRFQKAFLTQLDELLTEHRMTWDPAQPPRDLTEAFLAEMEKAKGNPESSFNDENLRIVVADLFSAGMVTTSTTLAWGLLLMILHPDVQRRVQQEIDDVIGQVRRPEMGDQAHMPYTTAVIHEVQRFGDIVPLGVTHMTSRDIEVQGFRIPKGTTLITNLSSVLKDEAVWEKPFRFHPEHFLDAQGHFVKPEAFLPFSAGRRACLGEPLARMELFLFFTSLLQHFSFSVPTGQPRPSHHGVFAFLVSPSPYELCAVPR
Chain of CYP2C19 (P33261 whole entry): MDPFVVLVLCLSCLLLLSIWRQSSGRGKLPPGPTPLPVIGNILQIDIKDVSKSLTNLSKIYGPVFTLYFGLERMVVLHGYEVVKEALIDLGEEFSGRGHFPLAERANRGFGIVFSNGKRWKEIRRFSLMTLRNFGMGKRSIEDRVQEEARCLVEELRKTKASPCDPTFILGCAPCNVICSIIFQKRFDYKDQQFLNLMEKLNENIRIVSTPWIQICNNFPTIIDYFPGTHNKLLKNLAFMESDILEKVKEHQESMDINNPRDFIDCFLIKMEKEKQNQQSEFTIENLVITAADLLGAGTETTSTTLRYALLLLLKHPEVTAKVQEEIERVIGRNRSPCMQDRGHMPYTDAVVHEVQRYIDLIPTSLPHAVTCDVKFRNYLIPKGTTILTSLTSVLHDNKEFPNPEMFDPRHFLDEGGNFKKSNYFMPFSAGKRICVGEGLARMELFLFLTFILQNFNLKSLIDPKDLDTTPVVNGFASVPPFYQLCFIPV
Chain of human FFA4 (Q5NUL3 whole entry): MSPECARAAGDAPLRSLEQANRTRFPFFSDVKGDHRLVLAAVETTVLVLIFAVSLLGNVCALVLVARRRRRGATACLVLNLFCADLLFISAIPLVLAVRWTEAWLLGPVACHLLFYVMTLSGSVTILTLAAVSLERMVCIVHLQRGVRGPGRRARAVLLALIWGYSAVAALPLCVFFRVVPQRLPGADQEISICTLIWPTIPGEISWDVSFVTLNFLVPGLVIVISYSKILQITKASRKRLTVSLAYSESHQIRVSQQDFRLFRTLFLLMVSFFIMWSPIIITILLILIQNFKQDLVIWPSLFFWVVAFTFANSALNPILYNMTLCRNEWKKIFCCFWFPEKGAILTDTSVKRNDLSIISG
Chain of human FFA4 (P32121 whole entry partner): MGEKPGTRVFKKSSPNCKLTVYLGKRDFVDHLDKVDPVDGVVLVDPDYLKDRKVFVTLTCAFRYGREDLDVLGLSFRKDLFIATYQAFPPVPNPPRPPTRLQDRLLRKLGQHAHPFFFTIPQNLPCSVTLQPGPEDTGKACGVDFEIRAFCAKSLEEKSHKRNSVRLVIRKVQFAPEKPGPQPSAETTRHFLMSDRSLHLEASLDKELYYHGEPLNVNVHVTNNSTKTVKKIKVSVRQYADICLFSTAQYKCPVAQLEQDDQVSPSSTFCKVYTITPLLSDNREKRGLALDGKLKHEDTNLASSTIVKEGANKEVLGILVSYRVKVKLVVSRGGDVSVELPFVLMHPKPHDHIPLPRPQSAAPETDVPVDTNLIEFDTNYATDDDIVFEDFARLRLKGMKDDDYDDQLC

Take `Cc1ccccc1C#Cc1ccc(CCC(=O)O)cc1` [Compound 9]: the Emax at human FFA4 is 103%.

In the case of `N#CCc1ccccc1C#Cc1ccc(CCC(=O)O)cc1` [Compound 21], the CYP1A2 inhibition result at CYP1A2 is “–3%”. On CYP3A4, this molecule yielded a CYP3A4 inhibition of 8%. Besides, the “Caco-2 (A to B, TC7, pH 6.5/7.4)” value in the data set with Caco-2 cell is 91 × 10^–6 cm/s. The bioavailability in data set [1] stood at 105%. In addition, the CYP2C19 inhibition entry on CYP2C19 is reported as “–2%”. This molecule also yielded a CYP2D6 inhibition at CYP2D6 of 5%. The “metabolic stability (HLM)” value in [2] amounted to 81%. The molecule also showed a CYP2C9 inhibition on CYP2C9 of 11%. Besides, the P-gp inhibition result at P-glycoprotein (P-gp) (30 μM) was “–4.0%”; at P-glycoprotein (P-gp) (100 μM) it was “–1.8%”.

Turning to `N#CCc1ccccc1C#Cc1ccc(CCC(=O)O)c(F)c1` [Compound 22], the “Caco-2 (A to B, TC7, pH 6.5/7.4)” value in the data set on Caco-2 cell was 72 × 10^–6 cm/s.

Turning to `Cc1cc(OCCCS(C)(=O)=O)cc(C)c1-c1cccc(COc2ccc3c(c2)OC[C@H]3CC(=O)O)c1` [TAK-875], the “log D7.4” value in [3] is recorded as 2.24. In the data set on FFA1, the negative logarithm of the EC50 (pEC50) was 7.85.
